# Experimental data as given in US20160109459A1, “Compositions And Methods For Heparan Sulfate As A Biomarker For Transplant Rejection” (Duke University, priority 2012, published 2016).
# Legend:
# [1] = system: BALB/c DCs; test: DC maturation: surface expression of CD40 and CD80 by FACS; type: cell-based, mouse; details: 24 h; HS 100 μg/mL, Pam3CSK4 2 μg/mL
# Experimental: FIG. 3A is a graph showing WT, TLR4^−/−, or MyD88^−/− BALB/c DCs (2×10^5/well) were stimulated with LPS (100 ng/mL), HS (100 μg/mL), or Pam3CSK4 (2 μg/mL), or left unstimulated (media) for 24 hours, and measured for surface expression of co-stimulatory molecules CD40 and CD80 by FACS analysis. FIGS. 3B and 3C are graphs showing WT, MyD88^−/−, and TLR4^−/− BALB/c cultured DCs were co-cultured with media alone, LPS, HS, or Pam3CSK4 as in (A) and culture supernatants were tested for IL-6 (B) and IL-12 (C) by ELISA. Data are representative of three independent experiments; *p<0.05 compared with media alone.
# To investigate how activation of DCs by HS promoted the alloreactive T cell response, an as DC maturation and production of pro-inflammatory cytokines are key initial events in triggering adaptive immune responses, the ability of HS to upregulate DC expression of costimulatory molecules, CD40 and CD80, and pro-inflammatory cytokines, IL-6 and IL-12 was tested.
# Antibodies and flow cytometry: Anti-CD40 (HM40-3), anti-CD80 (16-10A1), anti-Thy1.1 (OX-7), anti-Ly5.1 (A20) anti-IFN-γ (XMG1.2), rat IgG1 isotype (R3-34), and the BrdU Flow Kit (FITC-labeled) were from BD Biosciences (San Jose, Calif., USA). Intracellular IFN-γ staining was performed as previously described. (Brennan, T. V. et al. (2008) Transplantation 85:247-55). For in vivo BrdU labeling, mice were injected with 50 μg BrdU/gm i.p. 1 hour prior to analysis. Collection of flow cytometric data was acquired using a FACSCanto (BD Biosciences), and events were analyzed using FloJo software (Tree Star, Inc., Ashland, United States).
# [2] = system: purified T cells from C57BL/6 mice stimulated with bone marrow-derived BALB/c DCs; test: Allogeneic T cell proliferation assay (3H-thymidine incorporation, IFN-γ ELISA); type: cell-based, mouse
# Experimental: Cells were co-cultured either alone (media) or in the presence of LPS (100 ng/mL), Pam3CSK4 (2 μg/mL), hyaluronan (HA) (100 μg/mL), sonicated-HA (sHA) (100 μg/mL), fibronectin (FN) (100 μg/mL), fibrinogen (Fbn) (100 μg/mL), heparan sulfate (HS) (100 μg/mL), HSP70 (5 μg/mL), HMGB1 (1 μg/mL), C12-iE-DAP (1 μg/mL), or L18-MDP (1 μg/mL) for 72 hours, and then pulsed ^3H-thymidine for 16 hours. Proliferation was determined by ^3H incorporation and results are expressed as cpm±SEM. Baseline alloreactivity is indicated by the dotted line; *p<0.05 compared with media alone. […] Results are representative of three independent experiments.
# T cell proliferation assay: DCs were generated from bone marrow as previously described. (Yang, Y. (2004) Nat. Immunol. 5:508-15). CD3^+ T cells were isolated from B6 mice using a CD3 negative selection magnetic bead kit (Invitrogen, Carlsbad, United States). Proliferation assays were performed as previously described. (Brennan, T. V. et al. (2008) Transplantation 85:247-55).
# Purified T cells from C57BL/6 mice were stimulated with bone marrow-derived DCs from BALB/c mice and their proliferation was measured by the incorporation of ^3H-thymidine. DAMPs tested included proteins—fibronectin (FN), fibrinogen (Fbn), heat shock protein 70 (HSP70), and high-mobility group protein B1 (HMGB1); and glucosaminoglycans—heparan sulfate (HS) and hyaluronan (HA). For comparison, two well-described PAMPs, lipopolysaccharide (LPS) and a synthetic tripalmitoylated lipopeptide (Pam3CSK4) that are ligands of the TLR4 homodimer and the TLR1/2 heterodimer, respectively, were tested. As nucleotide-binding domain, leucine-rich repeat containing receptors (NLRB) are another family of innate immune receptors, ligands of NLR1 (C12-iE-DAP) and NLR2 (L18-MDP) were further tested.
# Next, to investigate whether HS enhanced proliferation of allogeneic T cells was due to the stimulation of TLRs on DCs or T cells, because MyD88 is a common adaptor protein involved in the signal transduction of all TLRs with the exception of TLR3^9, HS was tested against DCs or T cells that were deficient for MyD88. For this purpose, T cells from WT or MyD88^−/− C57BL/6 mice were stimulated with DCs from WT or MyD88^−/− BALB/c mice in an allogeneic proliferation assay in the presence of HS, LPS, Pam3CSK4, or media alone.
# HS has been shown as a TLR4 ligand, (Johnson, G. B. et al., (2002) J. Immunol. 168:5233-39; Johnson, G. B., Brunn, G. J. & Platt, J. L. (2004) J. Immunol. 172:20-24). To determine whether the absence of TLR4 expression on stimulating DCs would reduce HS-induced alloreactive T cell proliferation equivalent to MyD88 deficiency, purified T cells from C57BL/6 mice were co-cultured with irradiated WT, TLR4^−/−, and MyD88^−/− BALB/c DCs and proliferation was measured by the incorporation of ^3H-thymidine.
# Cytokine analysis: Cell culture supernatants were obtained from DC cultures or T cell proliferation assays and assayed for IL-6, IL-12 and IFN-γ by ELISA (BD Biosciences) according to the manufacturer's standard protocols. HEK 293 supernatants were tested for human IL-8 by ELISA (BioLegend, San Diego, United States).
# Allogenic heart transplants were performed between C57BL/6 donors and (BALB/c x DBA.1)F1 recipients. Serum HS was measured by ELISA Immunohistologic staining for HS and CD3 was performed on heart tx tissue. Bone marrow derived dendritic cells (DCs) and purified T cells from WT-, MyD88- or TLR4-deficient mice were used in MLR assays to test for proliferation and cytokine production in response to HS. CD40 and CD80 expression on stimulated DCs was measured by FACS. T cell proliferation was determined by ^3H-thymidine incorporation and CFSE dye dilution assay. HEK293 NF-kB-luciferase reporter cell lines stably expressing CD14, MD2, and TLR4 or TLR2 were used in assays of HS activity.
# [3] = TLR4−/− BALB/c DCs as stimulators
substance,measurement,setting,value
heparan sulfate [HS],upregulation of CD40 and CD80 on WT DCs,[1],upregulation
same,IFNg production in MLR assays,[2],increased
same,alloreactive T cell proliferation with MyD88−/− DCs as stimulators,[2]; MyD88−/− BALB/c DCs,abolished the enhanced proliferation
same,IFN-γ production with TLR4−/− DCs,[2]; [3],not able to increase
same,proliferation of allogeneic T cells above baseline with TLR4−/− DCs,[2]; [3],not able to increase
same,alloreactive T cell proliferation compared to media alone,"[2]; WT BALB/c DCs + C57BL/6 T cells, 72 h then 3H-thymidine 16 h, HS 100 μg/mL, HSP70 5 μg/mL, C12-iE-DAP 1 μg/mL, L18-MDP 1 μg/mL",significantly increased
